According to patent US20250205176A1, “SOLID COMPOSITION CONTAINING FORM II-TYPE CRYSTAL OF REDUCED COENZYME Q10” (KANEKA CORPORATION, priority 2022, published 2025):

Assay: Reference Example: half-life period and stabilization degree from QH residual rate after 14 days storage
Assay type: physicochemical
Conditions: for Half-life Period: number of days required for the QH residual rate to reach 50%, from storage at 25° C. and 60% RH for 14 days
Experimental: The reduced coenzyme Q10 Form I crystal (Form I-crystal), the particulate solid composition produced using the reduced coenzyme Q10 Form I crystal in the same manner as in Comparative Example 1 (Form I-stabilized composition), the reduced coenzyme Q10 Form II crystal (Form II-crystal), and the particulate solid composition produced using the reduced coenzyme Q10 Form II crystal in the same manner as in Example 1 (A-1) (Form II-stabilized composition) were stored at 25° C. and 60% RH for 14 days. From the QH residual rate after storage, the half-life period, which is the number of days required for the QH residual rate to reach 50%, and the stabilization degree, which is the ratio of the half-life period of the stabilized composition to the half-life period of each crystal, were determined and shown in Table 17.

| SMILES | Half-life Period | stability relative to the Form I crystal (25° C. and 60% RH) |
| --- | --- | --- |
| COc1c(O)c(C)c(C/C=C(\C)CC/C=C(\C)CC/C=C(\C)CC/C=C(\C)CC/C=C(\C)CC/C=C(\C)CC/C=C(\C)CC/C=C(\C)CC/C=C(\C)CCC=C(C)C)c(O)c1OC [Form I - crystal, reduced coenzyme Q10] | 14 days |  |
| COc1c(O)c(C)c(C/C=C(\C)CC/C=C(\C)CC/C=C(\C)CC/C=C(\C)CC/C=C(\C)CC/C=C(\C)CC/C=C(\C)CC/C=C(\C)CC/C=C(\C)CCC=C(C)C)c(O)c1OC [Form II - crystal, reduced coenzyme Q10] | 189 days | 14 times |
